Values quoted from earlier work in US10851223B2, “Use of a cyclodextrin polycondensate or a composition comprising such a polycondensate, as a capturing agent” (BIOSTART, priority 2016, dated 2020).

Conditions: octanol/water

Row | Structure (SMILES) | Log Kow
1 | CN(C)C(=O)Nc1ccc(Cl)c(Cl)c1 [Diuron] | 2.68
2 | Clc1ccc(-c2ccc(Cl)cc2Cl)cc1 [PCB 28] | 5.62
3 | Clc1ccc(Cl)c(-c2cc(Cl)ccc2Cl)c1 [PCB 52] | 6.12
4 | Clc1ccc(Cl)c(-c2cc(Cl)c(Cl)cc2Cl)c1 [PCB 101] | 6.8
5 | Clc1ccc(-c2cc(Cl)c(Cl)cc2Cl)cc1Cl [PCB 118] | 6.84
6 | Clc1cc(Cl)c(-c2ccc(Cl)c(Cl)c2Cl)cc1Cl [PCB 138] | 7.25
7 | Clc1cc(Cl)c(-c2cc(Cl)c(Cl)cc2Cl)cc1Cl [PCB 153] | 7.21
8 | Clc1cc(Cl)c(-c2cc(Cl)c(Cl)c(Cl)c2Cl)cc1Cl [PCB 180] | 7.7
9 | c1ccc2c(c1)c1cccc3ccc4cccc2c4c31 [benzopyrene] | 6.07
10 | CCCCC(CC)COC(=O)c1ccccc1C(=O)OCC(CC)CCCC (stereo not shown) [di(2-ethylhexyl)-phthalate] | 7.6
